How the values were obtained:
[1] = target: T1, human TRPV3 (Homo sapiens, UniProt Q8NET8); experiment: In vitro antagonism of recombinant human TRPV3 activation (FLIPR Tetra calcium assay, 2-APB as agonist); assay type: cell-based; conditions: HEK293 cells stably expressing human TRPV3; 2-APB 80 μM; range class; read-out: IC50 (reported range)
T1 construct: expressed in transfected cells
T1 sequence (Q8NET8 1-790): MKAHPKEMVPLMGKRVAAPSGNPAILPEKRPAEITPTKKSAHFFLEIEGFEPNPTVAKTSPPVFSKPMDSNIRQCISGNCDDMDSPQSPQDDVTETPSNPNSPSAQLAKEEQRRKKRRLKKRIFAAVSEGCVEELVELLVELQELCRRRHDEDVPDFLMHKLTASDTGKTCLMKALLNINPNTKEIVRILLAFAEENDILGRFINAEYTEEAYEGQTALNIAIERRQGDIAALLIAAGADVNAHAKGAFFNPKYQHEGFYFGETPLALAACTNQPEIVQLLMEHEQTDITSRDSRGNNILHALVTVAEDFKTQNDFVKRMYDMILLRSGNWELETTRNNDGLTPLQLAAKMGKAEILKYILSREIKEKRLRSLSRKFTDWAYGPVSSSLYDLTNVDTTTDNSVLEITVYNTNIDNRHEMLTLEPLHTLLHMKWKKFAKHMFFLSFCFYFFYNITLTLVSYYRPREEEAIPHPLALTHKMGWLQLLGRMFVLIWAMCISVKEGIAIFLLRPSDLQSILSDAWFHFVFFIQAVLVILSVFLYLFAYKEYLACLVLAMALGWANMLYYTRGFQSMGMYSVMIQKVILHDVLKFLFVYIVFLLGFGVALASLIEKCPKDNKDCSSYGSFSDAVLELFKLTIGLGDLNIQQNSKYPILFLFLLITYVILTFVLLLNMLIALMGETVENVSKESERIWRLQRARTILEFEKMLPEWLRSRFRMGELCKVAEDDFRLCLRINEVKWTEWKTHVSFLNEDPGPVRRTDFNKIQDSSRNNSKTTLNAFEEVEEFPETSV
Summary of the method: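 HEK293 cells stably expressing human TRPV3, loaded with Calcium-4 dye for 90-120 min; compound added 3 min before 2-APB at 80 μM (its EC80). Fluorescence (max minus min) over 10 min expressed as % of maximal 2-APB response without antagonist; IC50 mostly averaged from n≧2 runs.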

[2] = In vitro human microsomal stability assay; assay type: in vitro ADME; conditions: human, 0.5 h, 0.5 μM, pH 7.4
Summary of the method: (§1)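 Incubations ran at 37 °C in NADPH-supplemented rat (Sprague-Dawley) or human hepatic microsomes.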

[3] = In vitro rat microsomal stability assay; assay type: in vitro ADME, rat (Sprague-Dawley); conditions: Sprague-Dawley, rat, 0.5 h, 0.5 μM, pH 7.4
Summary of the method: as §1

Row | IC50 [1] [nM] | HUMAN MICROSOMAL STABILITY (% REMAINING AFTER 30 MINUTES) [2] [%] | RAT MICROSOMAL STABILITY (% REMAINING AFTER 30 MINUTES) [3] [%] | Compound
1 | 1100 to 5000 | >85 | 3.9 | NC1CCCCC1C(O)C1(c2cccc(C(F)(F)F)c2)CCC1 (stereo not drawn) [Example 212, (2-aminocyclohexyl){1-[3-(trifluoromethyl)phenyl]cyclobutyl}methanol]
2 | 1100 to 5000 | >85 | 72 | NC1CCC1C(O)C1(c2cccc(C(F)(F)F)c2)CCC1 (stereo not drawn) [Example 213, (2-aminocyclobutyl){1-[3-(trifluoromethyl)phenyl]cyclobutyl}methanol]
3 | 1100 to 5000 | >85 | 41 | N[C@@H]1CCC[C@@H]1[C@@H](O)C1(c2ccc(Cl)c(Cl)c2)CCC1 [Example 216, (R)-[(1S,2R)-2-aminocyclopentyl][1-(3,4-dichlorophenyl)cyclobutyl]-methanol]
4 | 1100 to 5000 | 73 | 68 | N[C@H]1CCC[C@H]1[C@H](O)C1(c2ccc(Cl)c(Cl)c2)CCC1 [Example 217, (S)-[(1R,2S)-2-aminocyclopentyl][1-(3,4-dichlorophenyl)cyclobutyl]-methanol]
5 | 501 to 1000 | >85 | 67 | N[C@@H]1CCC[C@H]1[C@@H](O)C1(c2ccc(Cl)c(Cl)c2)CCC1 [Example 220, (R)-[(1R,2R)-2-aminocyclopentyl][1-(3,4-dichlorophenyl)cyclobutyl]-methanol]
6 | 1100 to 5000 | 83 | 56 | N[C@@H]1CCC[C@@H]1[C@@H](O)C1(c2ccc(OC(F)(F)F)cc2)CCC1 [Example 221, (R)-[(1S,2R)-2-aminocyclopentyl]{1-[4-(trifluoromethoxy)phenyl]-cyclobutyl}methanol]
7 | 1100 to 5000 | >85 | 59 | N[C@H]1CCC[C@@H]1[C@H](O)C1(c2ccc(OC(F)(F)F)cc2)CCC1 [Example 222, (S)-[(1S,2S)-2-aminocyclopentyl]{1-[4-(trifluoromethoxy)phenyl]-cyclobutyl}methanol]
8 | 1100 to 5000 | >85 | 65 | N[C@@H]1CCC[C@H]1[C@@H](O)C1(c2ccc(OC(F)(F)F)cc2)CCC1 [Example 223, (R)-[(1R,2R)-2-aminocyclopentyl]{1-[4-(trifluoromethoxy)phenyl]-cyclobutyl}methanol]
9 | 1100 to 5000 | >85 | 70 | N[C@@H]1CCC[C@H]1[C@@H](O)C1(c2ccc(Cl)cc2)CCC1 [Example 224, (R)-[(1R,2R)-2-aminocyclopentyl][1-(4-chlorophenyl)cyclobutyl]methanol]
10 | 1100 to 5000 | >85 | 34 | N[C@H]1CCC[C@@H]1[C@H](O)C1(c2ccc(Cl)cc2)CCC1 [Example 225, (S)-[(1S,2S)-2-aminocyclopentyl][1-(4-chlorophenyl)cyclobutyl]methanol]
11 | 501 to 1000 | >85 | <0.01 | N[C@H]1CCC[C@H]1[C@@H](O)C1(c2ccccc2F)CCC1 [Example 226, (R)-[(1R,2S)-2-aminocyclopentyl][1-(2-fluorophenyl)cyclobutyl]methanol]
12 | 50 to 500 | >85 | 42 | N[C@@H]1CCC[C@H]1[C@@H](O)C1(c2cccc(C(F)(F)F)c2)CCC1 [Example 227, (R)-[(1R,2R)-2-aminocyclopentyl]{1-[3-(trifluoromethyl)phenyl]-cyclobutyl}methanol]
13 | 1100 to 5000 | 70 | 25 | CN[C@@H]1CCC[C@H]1[C@@H](O)C1(c2ccc(Cl)c(Cl)c2)CCC1 [Example 228, (R)-[1-(3,4-dichlorophenyl)cyclobutyl][(1R,2R)-2-(methylamino)-cyclopentyl]methanol]
14 | 1100 to 5000 | >85 | 80 | N[C@H]1CCC[C@H]1[C@@H](O)C1(c2ccc(OC(F)(F)F)cc2)CCC1 [Example 229, (R)-[(1R,2S)-2-aminocyclopentyl]{1-[4-(trifluoromethoxy)phenyl]-cyclobutyl}methanol]
15 | 501 to 1000 | 4.0 | 17 | O[C@H](c1ccccn1)C1(c2ccc(Cl)c(Cl)c2)CC1 [Example 231, (S)-[1-(3,4-dichlorophenyl)cyclopropyl](pyridin-2-yl)methanol]
16 | 5100 to 20000 | 19 | 23 | OC(c1ccccn1)C1(c2cccc(C(F)(F)F)n2)CCC1 (stereo not drawn) [Example 234, pyridin-2-yl{1-[6-(trifluoromethyl)pyridin-2-yl]cyclobutyl}methanol]
17 | 1100 to 5000 | 20 | <0.01 | OC(c1ccccn1)C1(c2cccc(OC(F)(F)F)c2)CC2(C1)OCCO2 (stereo not drawn) [Example 235, pyridin-2-yl{2-[3-(trifluoromethoxy)phenyl]-5,8-dioxaspiro[3.4]oct-2-yl}-methanol]
18 | 1100 to 5000 | 51 | 50 | O=C1CC(c2cccc(OC(F)(F)F)c2)(C(O)c2ccccn2)C1 (stereo not drawn) [Example 237, 3-[hydroxy(pyridin-2-yl)methyl]-3-[3-(trifluoromethoxy)phenyl]-cyclobutanone]
19 | 1100 to 5000 | 7.1 | 21 | O[C@H](c1ccccn1)C1(c2cccc(C(F)(F)F)n2)CCC1 [Example 238, (S)-pyridin-2-yl{1-[6-(trifluoromethyl)pyridin-2-yl]cyclobutyl}methanol]
20 | 501 to 1000 | 50 | 38 | O[C@H](c1ccccn1)C1(c2ccnc(C(F)(F)F)c2)CCC1 [Example 240, (S)-pyridin-2-yl{1-[2-(trifluoromethyl)pyridin-4-yl]cyclobutyl}methanol]
21 | 5100 to 20000 | 45 | <0.01 | OC(c1ccccn1)C1(c2cccc(C(F)(F)F)c2)CC2(C1)OCCO2 (stereo not drawn) [Example 242, pyridin-2-yl{2-[3-(trifluoromethyl)phenyl]-5,8-dioxaspiro[3.4]oct-2-yl}-methanol]
22 | 1100 to 5000 | 80 | 77 | CC1(O)CC(c2cccc(C(F)(F)F)c2)(C(O)c2ccccn2)C1 [Example 244, trans-3-[(S)-hydroxy(pyridin-2-yl)methyl]-1-methyl-3-[3-(trifluoromethyl)-phenyl]cyclobutanol]
23 | 1100 to 5000 | 57 | 72 | O=C1CC(c2cccc(C(F)(F)F)c2)(C(O)c2ccccn2)C1 (stereo not drawn) [Example 245, 3-[hydroxy(pyridin-2-yl)methyl]-3-[3-(trifluoromethyl)phenyl]cyclobutanone]
24 | 1100 to 5000 | 62 | >85 | OC1CC(c2ccc(Cl)c(Cl)c2)(C(O)c2ccccn2)C1 [Example 247, cis-3-(3,4-dichlorophenyl)-3-[(R)-hydroxy(pyridin-2-yl)methyl]cyclobutanol]
25 | 1100 to 5000 | 70 | 29 | ON=C1CC(c2ccc(OC(F)(F)F)cc2)([C@H](O)c2ccccn2)C1 (stereo partly drawn) [Example 248, (S)-{3-(hydroxyimino)-1-[4-(trifluoromethoxy)phenyl]cyclobutyl}(pyridin-2-yl)methanol]
